Data on three compounds can be found in paper PMC7112222, “Investigation of pyrimidine nucleoside analogues as chemical probes to assess compound effects on the proliferation of Trypanosoma cruzi intracellular parasites” (PLoS Neglected Tropical Diseases, 2020).

One assay has as its system 3T3 cells. The assay is described as follows: Image-based assay, effect on 3T3 host cells. Type of assay: cell-based. As to conditions: 48 h; highest test concentration 183 μM. The protocol:
(§1) Parasites and host cells were maintained as outlined previously. Briefly, host 3T3 fibroblasts (ATCC, CCL-92) were grown in RPMI medium (Thermo Fisher Scientific, USA) with no phenol red, supplemented with 10% FBS (Thermo Fisher Scientific, USA) and incubated at 37°C in 5% CO2. Host cells were harvested at 70% confluency and were split every 2–3 days in 175 cm^2 flasks. 3T3 cells were cultured up to passage 7 as contact inhibition was reduced or lost at higher passages. Prior to infection with T. cruzi trypomastigotes, host cells were seeded at 1.2 x 10^6 cells in 75 cm^2 or 4 x 10^5 cells in 25 cm^2 flasks and grown for 24 hours before parasite addition. Parasites were added at a multiplicity of infection (MOI) of 10:1 and incubated for 24 hours before non-infected trypomastigotes were washed off the host cell bed with PBS supplemented with Ca^2+ and Mg^2+ (Thermo Fisher Scientific, USA). Incubation was continued for a further 3 days, until tissue culture trypomastigotes began to egress from host cells. Egressed parasites were used for assays or to continue the infective life cycle in vitro.
[…] Briefly, 14-point serial dilutions of the compounds in 100% DMSO were prepared and then further diluted in sterile water at a ratio of 1:21 compound: water. Five microliters of the diluted compounds were added to wells of T. cruzi infected host cells, using a MiniTrak compound handling device (Perkin Elmer, USA) with final concentrations in the plate ranging from 183 μM to 4.6 x 10^−4 μM. All experiments were performed with two separate biological replicates.
Image analysis was performed with a script developed in Columbus software (CHEMICAL LABEL INCORPORATION SCRIPT). Control wells were also imaged at an increased, 60x magnification to show the distribution of staining and the structure of the parasites within host cells. Eight background control wells consisted of infected host cells, fixed and exposed to Hoechst and the click chemistry cocktail, without the addition of the chemical probe EdU. […] The percentage activity of compounds against parasite number / infected cells (identified with Hoechst) was calculated against a positive control of 12 μM of NFX for the parasite and 30 μM of PURO the host cells; and a negative control of 0.47% DMSO. All images taken were not modified and were taken on an Opera, confocal image-based reader.

Assay [1] has as its system T. cruzi intracellular amastigotes. The assay is described as follows: Detection of T. cruzi replication following exposure to inhibitors (EdU incorporation vs Hoechst). The following applies: Trypanosoma cruzi; for IC50: 48 hours exposure, mean ± SD. Type of assay: cell-based, Trypanosoma cruzi. The protocol:
The addition of host cells, parasites and compounds were as described for the T. cruzi image based method previously reported. […] Addition of nuclear and cytoplasmic dyes was undertaken as previously reported and images captured on an Opera confocal image-based system at 20x magnification. Image analysis was performed with a script developed in Columbus software (CHEMICAL LABEL INCORPORATION SCRIPT). Control wells were also imaged at an increased, 60x magnification to show the distribution of staining and the structure of the parasites within host cells. Eight background control wells consisted of infected host cells, fixed and exposed to Hoechst and the click chemistry cocktail, without the addition of the chemical probe EdU. […] All images taken were not modified and were taken on an Opera, confocal image-based reader.

Another assay concerns HEK293 cells. The assay is described as follows: Redox-based assay to assess HEK293 viability. Format: cell-based, human. As to conditions: 48 hours exposure; highest test concentration 87 μM; EdU value estimated, relative to Emax plateau of 57%. The protocol:
To determine the effect of the nucleoside analogues against a replicating mammalian cell line, analogues were tested against HEK293 cells, utilising a REDOX-based metabolic assay to assess cell viability as previously described. […] Experiments were performed over two biological replicates.

Assay [2] deals with T. cruzi intracellular amastigotes. The assay is described as follows: Image-based assay of the number of T. cruzi infected cells (intracellular amastigotes in 3T3 host cells). Type of assay: cell-based, Trypanosoma cruzi. As to conditions: for inhibition at 183 µM: read-out: inhibition of T. cruzi growth at highest test concentration. Here is the method: as §1
The activity of the nucleoside analogues against T. cruzi intracellular amastigotes following 24, 48 hours exposure and compound wash off, was determined using image-based techniques as previously described. Briefly, 14-point serial dilutions of the compounds in 100% DMSO were prepared and then further diluted in sterile water at a ratio of 1:21 compound: water. Five microliters of the diluted compounds were added to wells of T. cruzi infected host cells, using a MiniTrak compound handling device (Perkin Elmer, USA) with final concentrations in the plate ranging from 183 μM to 4.6 x 10^−4 μM. All experiments were performed with two separate biological replicates.
IC50 values for inhibitory activity of both the nucleoside analogues tested as DNA probes and known inhibitors tested to determine their effect on replication of T. cruzi were calculated in GraphPad Prism 5, using sigmoidal dose response with variable slope. […] The p-value for difference in the % activity at Emax concentrations for compounds with known activity (EdU identified parasites, compared to Hoechst identified parasites) against T. cruzi was determined using GraphPad Prism 5, using an unpaired student’s t-test. […] The Emax for each compound was at least two data points in from the beginning of the plateau of activity in the IC50 curve, as previously described.

Another assay relates to T. cruzi amastigote DNA. The assay is described as follows: Incorporation of pyrimidine nucleoside analogues into T. cruzi amastigote DNA (click chemistry, colocalisation with Hoechst). Type of assay: cell-based, Trypanosoma cruzi. The protocol:
T. cruzi infected 3T3 fibroblasts were initially exposed to nucleoside analogues for 48 hours at concentrations ranging from 73 μM to 1.8 x10^-4 μM. Host cell, parasite and compound additions were carried out as previously described. Cells were then stained using a click chemistry azide cocktail, followed by Hoechst to identify nuclear material, as previously reported. The freshly prepared azide cocktail consisted of a final concentration of 5 μM of Alexa Fluor 488 azide (Thermo Fisher Scientific, USA), 1 mM copper sulfate (Sigma Aldrich, USA) and 100 mM sodium ascorbate (Sigma Aldrich, USA), in DPBS. Wells were imaged on an Opera image-based reader (Perkin Elmer, USA) at 20x magnification with 405 nm (defined as Hoechst channel) and 488 nm (defined as Alexa 488 channel) lasers using filter sets/bandwidth (emission) of 450/50 nm and 540/75 nm, respectively. To determine nucleoside analogue incorporation into T. cruzi amastigote DNA, a script was developed utilising the Columbus (PerkinElmer, USA) image-based analysis and data handling platform (CHEMICAL LABEL INCORPORATION SCRIPT). Nucleoside analogues were also tested for DNA incorporation following 2, 4 and 24 hours exposure, at the same concentrations. All experiments were performed in duplicate. The colocalisation of nucleoside analogues and Hoechst (replicating parasites) at each time point (48, 4 and 2 hours) was compared using GraphPad Prism 5.
A CHEMICAL LABEL INCORPORATION SCRIPT developed in Columbus firstly identified Hoechst stained parasites within host cells by spot analysis, utilizing the same building block analysis as we had previously developed to determine T. cruzi infected cells. The physical definition of amastigote DNA was identified by Hoechst, with the only modification being that as there was no cytoplasmic marker, thus segmentation borders in the Hoechst channel were applied, which effectively separated host cells (Fig 2). Further building blocks were added to calculate the intensity of Alexa Fluor 488 within the spots identified by Hoechst, in infected cells. This script was first applied to images to determine the mean fluorescence intensity in the Alexa 488 channel of Hoechst identified parasites, without the addition of the chemical label. The mean plus three times the standard deviation of this intensity was used to define values above background, thus the minimum intensity above background required to identify parasite DNA which successfully incorporated the chemical label. An input box was incorporated into the script, in which this minimum intensity above background was entered. Parameters of the developed script, “CHEMICAL LABEL INCORPORATION” are shown in S1 Table.
• Number of T. cruzi amastigote infected cells (≥5 parasites per cell, identified with Hoechst). • Number of Hoechst identified T. cruzi parasites (in infected cells). • Number of parasites incorporating chemical label (T. cruzi parasites with Alexa 488 intensity above background, in infected cells). • % chemical label incorporation. Alexa 488 spots in infected cells (above background) NO / Hoechst spots in infected cells NO *100 = Percentage colocalisation; where NO = number of objects. • Number of host cells.

The mark [3] stands for this setting: 24 hours exposure, highest test concentration 183 μM.
The mark [4] stands for this setting: 48 hours incubation, compound wash off, further 72 hours without compound, highest test concentration 183 μM.
[5] abbreviates: 48 hours incubation, highest test concentration 183 μM.
[6] abbreviates: Trypanosoma cruzi, 48 h, 48 hours incubation.

Read-outs that look alike come from different tables or passages of the source.

Broadly, the IC50 is the concentration at which inhibition is half-maximal. The term Emax denotes the size of the effect at its maximum, as opposed to the concentration needed. `CC1CS(=O)(=O)CCN1/N=C/c1ccc([N+](=O)[O-])o1` (stereo not drawn) [NFX, nifurtimox]: the “Host cell 3T3 IC50 value 48 h” value in the assay on 3T3 cells is “NA (NA = ≤50% activity at the highest concentration tested and an IC50 value could not be determined)”. Moreover, the inhibition at 63 µM in assay [1] (2 h, read-out: mean inhibition of incorporation of EdU into the parasite DNA) turned out to be 57 ± 9.1%. Also, the IC50 in assay [1] (then 0.37 μM EdU for 4 hours, number of EdU incorporating parasites, read-out: IC50 value Amastigotes (EdU)) turned out to be 210 ± 1.8 nM; in assay [1] (number of Hoechst identified parasites in infected cells, read-out: IC50 value Amastigotes (Hoechst)) it was 320 ± 24 nM; in assay [2] (Trypanosoma cruzi, read-out: IC50 value of positive assay control in the 2 and 4 hour exposure experiment, control exposure for 48 hours) it was 1000 ± 101 nM; in assay [2] (Trypanosoma cruzi, 24 hours exposure, highest test concentration 183 μM, read-out: T. cruzi 24 IC50 value) it was 1720 ± 860 nM; in assay [2] (Trypanosoma cruzi, 48 hours exposure, well-established intracellular infection assay, mean ± SD, POSA value based on sub-optimal effect (Emax 75%), read-out: IC50 value Infected cells (Hoechst)), 800 ± 90 nM; in assay [2] (Trypanosoma cruzi, 48 hours incubation, compound wash off, further 72 hours without compound, highest test concentration 183 μM, read-out: T. cruzi Wash off IC50 value), 1410 ± 1080 nM. Moreover, the IC50 in assay [2] (Trypanosoma cruzi, 48 hours incubation, highest test concentration 183 μM, read-out: T. cruzi 48 IC50 value) is 970 ± 26 nM. In the assay with HEK293 cells, the “HEK293 IC50 value” is “NA (NA = ≤50% activity at the highest concentration tested and an IC50 value could not be determined)”. The “SI (selectivity index to T. cruzi intracellular amastigotes in relation to HEK293 cells)” value in assay [2] (48 hours exposure) is on record as greater than 143. The Emax is 100% in assay [2] (Trypanosoma cruzi, 24 hours exposure, read-out: T. cruzi 24 relative Emax (in brackets) (converted)); 100% in assay [2] (Trypanosoma cruzi, 48 hours incubation, wash off, further 72 hours without compound, read-out: T. cruzi Wash off relative Emax (in brackets) (converted)); 100% in assay [2] (Trypanosoma cruzi, 48 hours incubation, read-out: T. cruzi 48 relative Emax (in brackets) (converted)).

With `C#Cc1cn([C@@H]2O[C@H](CO)[C@@H](O)[C@@H]2F)c(=O)[nH]c1=O` [F-ara-EdU, (2S′)-2′-deoxy-2′-fluoro-5-ethynyl-uridine], the “incorporation into parasite DNA following 2 hours exposure” value with T. cruzi amastigote DNA (2 hours exposure) is reported as “No incorporation”. The “% of T. cruzi parasites with incorporation” value in the assay with T. cruzi amastigote DNA (4 hours, 73 μM) is recorded as 36 ± 7.3%. For the same compound, the “incorporation into T. cruzi DNA following 48 hours incubation (in words)” value in the assay with T. cruzi amastigote DNA is given as “incorporated”. Moreover, the “% of parasites with analogue incorporated” value in the assay with T. cruzi amastigote DNA (48 hours, top concentration 73 μM) is 91 ± 0.23%. Further, in the assay on 3T3 cells, the “Host cell 3T3 IC50 value 48 h” value is “NA (NA = ≤50% activity at the highest concentration tested and an IC50 value could not be determined)”. In addition, in the assay on HEK293 cells, the “HEK293 IC50 value” is “NA (NA = ≤50% activity at the highest concentration tested and an IC50 value could not be determined)”. For the same compound, the “T. cruzi 24 IC50 value” in assay [2] (setting [3]) is “NA (NA = ≤50% activity at the highest concentration tested and an IC50 value could not be determined)”. In addition, the “T. cruzi Wash off IC50 value” in assay [2] (setting [4]) was “NA (NA = ≤50% activity at the highest concentration tested and an IC50 value could not be determined)”. Besides, in assay [2] (setting [5]), the “T. cruzi 48 IC50 value” was “NA^3 (NA = ≤50% activity at the highest concentration tested and an IC50 value could not be determined)”. Also, the inhibition at 73 µM in assay [2] (Trypanosoma cruzi, 48 h, 73 μM, 48 hours incubation, read-out: inhibition / activity against T. cruzi amastigotes at 73 μM) was less than 50%. The inhibition at 183 µM in assay [2] (setting [6]) is no more than 50%.

Regarding `C#Cc1cn([C@@H]2O[C@H](CO)[C@@H](O)[C@@H]2I)c(=O)[nH]c1=O` [I-ara-EdU, (2′S)-2′-deoxy-5-ethynyl-2′-iodo-uridine], in the assay with T. cruzi amastigote DNA, the “incorporation into T. cruzi DNA following 48 hours incubation (in words)” value is “did not”. Besides, the “incorporation (no incorporation observed)” value in the assay on T. cruzi amastigote DNA (48 hours, concentrations up to a maximum of 73 μM) is less than 20%. Besides, the “Host cell 3T3 IC50 value 48 h” value in the assay on 3T3 cells was “NA (NA = ≤50% activity at the highest concentration tested and an IC50 value could not be determined)”. Moreover, in the assay on HEK293 cells, the “HEK293 IC50 value” is “NA (NA = ≤50% activity at the highest concentration tested and an IC50 value could not be determined)”. For the same compound, the “T. cruzi 24 IC50 value” in assay [2] (setting [3]) is “NA (NA = ≤50% activity at the highest concentration tested and an IC50 value could not be determined)”. In addition, the “T. cruzi Wash off IC50 value” in assay [2] (setting [4]) is “NA (NA = ≤50% activity at the highest concentration tested and an IC50 value could not be determined)”. In addition, the “T. cruzi 48 IC50 value” in assay [2] (setting [5]) was “NA (NA = ≤50% activity at the highest concentration tested and an IC50 value could not be determined)”. The inhibition at 183 µM in assay [2] (setting [6]) was no more than 50%.
